Test results reported in patent publication US20250066286A1, “COMPOSITIONS OF (Z)-ENDOXIFEN AND METHODS OF ENRICHMENT THEREOF” (Atossa Therapeutics, Inc., priority 2022, published 2025).
Read-outs that look alike come from different tables or passages of the source.

Legend:
[1] = Storage stability of polymorphic forms at room temperature in a sealed vial (XRPD time course); type: physicochemical; details: room temperature
Procedure: Form I samples were collected for XR-PD analysis following 0, 7, and 42 days of storage, the results of which are shown in FIG. 10.
The stability of polymorphic Form IV was evaluated over 7 days of storage at room temperature in a sealed vial. Portions of the Form IV samples were collected for XRPD analysis following 0 (Form IV), 3 (Form IV-3D3-storage), and 7 days (Form IV-7D3-storage) of storage, the results of which are shown in FIG. 14.
The stability of polymorphic Form IV was also evaluated following crystallization from a room temperature 2-propanol/THF 95/5 (v/v) solvent system containing 40 mg/ml (Z)-endoxifen. XPRD was collected immediately after recovery and following 15 days storage at room temperature in a sealed vial. FIG. 15 provides the resultant XRPD patterns following 15 days storage (Form IV-2PR/THF-15D-storage) and 0 days storage (Form IV-2PR/THF-0D-storage), as well as an XRPD spectrum of Form IV (Form IV) obtained from 2-propanol recrystallization.
Since the room temperature evaporation in acetone yielded a mixture of polymorphic Form I and Form IV XRPD patterns with a very intense unassigned signal at 16.1° 2θ, the sample was re-measured following 7 days storage in a sealed vial. From top to bottom, FIG. 16 provides XRPD patterns of the acetone-generated polymorphs following 7 (EVRT-ACT-7D-storage) and 0 days of storage (EVRT-ACT-0D-storage), a Form IV spectrum (Form IV), and a Form I (Form I) spectrum, respectively.
Form XVII was further assessed after 3 days storage in a sealed vial at room temperature.
Form XVIII was further reassessed by XRPD following 3 and 7 days storage at room temperature in a sealed vial. The data from these analyses are summarized in FIG. 24, which (from top to bottom) provides the sample following 7 days storage (Form XVIII-7D-storage), the sample following 3 days storage (Form XVIII-3D-storage), and the sample immediately following crystallization (Form XVIII).
Form XIX room temperature stability was evaluated with XRPD. XRPD of a Form XIX sample immediately following crystallization (Form XIX) and following 7 days of storage (Form XIX-7D-storage) are shown in FIG. 26.
The stability of polymorphic Form V was over 10 days of storage at room temperature in a sealed vial. XR-PD was performed following 0, 3, and 10 days storage.
To evaluate Form VI stability, XRPD spectra of a Form VI sample were collected following 0, 3, and 14 days of room temperature storage in a sealed vial. The resulting XRPD patterns of the sample following 0 (Form VI), 3 (Form VI-3D-storage), and 14 days storage (Form VI-14D-storage) are shown in FIG. 30.
The stability of polymorphic Form VII was evaluated over 7 days of storage at room temperature in a sealed vial. Portions of the Form VII samples were collected for XRPD analysis over 7 days of storage, the results of which are shown in FIG. 32.
Form VIII stability over 7 days storage in a sealed vial at room temperature was evaluated with XRPD.
The stability of Form IX generated by precipitation from an ethyl acetate/heptane solvent system (Form IX Recrystallization (1)) was evaluated over 7 days of storage at room temperature. Portions of the Form IX sample were collected following 0 and 7 days of storage in a sealed vial and analyzed by XRPD analysis to identify possible changes in the polymorph.
Form IX stability was separately characterized for crystals generated through the addition of (Z)-endoxifen saturated ethyl acetate to heptane (Form IX Recrystallization (2)), which yielded higher crystallinity Form IX than was afforded by heptane addition to (Z)-endoxifen saturated ethyl acetate.
Form IX stability was further evaluated for crystals generated by precipitation from an acetone/butyl methyl ether (acetone/BME) solvent/antisolvent mixture (Form IX Recrystallization (4)). Portions of the Form IX sample were collected following 0 and 5 days of storage in a sealed vial at room temperature and compared to reference XRPD patterns of Forms VII and IX. […]

[2] = Mechanical stability: grinding and kneading by ball milling (XRPD); type: physicochemical
Procedure: Stability tests were performed on mixtures of Form I and Form IV; Form I and Form VII; and Form I, Form IV, and Form VII. In a first mechanical stability test, the polymorphs were analyzed by XRPD following 10 minutes of grinding by ball milling at 30 Hz. In a second mechanical stability test, the polymorphs were analyzed by XRPD following 10 minutes of kneading by ball milling at 30 Hz in the presence of a catalytic amount of 2-propanol (2 μl).

[3] = Stability at various temperatures and relative humidities, seven days (XRPD); type: physicochemical; details: 7 days
Procedure: The stabilities of the polymorphs were also assessed at various temperatures and relative humidities. These analyses were performed by storing 20 mg of polymorph samples for seven days at: (1) 25° C. and 100% relative humidity, (2) 40° C. and 75% relative humidity, (3) 25° C. and 60% relative humidity, and (4) at 60° C. and 75% relative humidity. XRPD was collected on the samples following these incubations and compared to XRPD of the samples prior to storage.

[4] = Thermal treatment of Form IV at 90° C. and 50 mbar (XRPD); type: physicochemical
Procedure: To confirm the DSC results, Form IV deterioration was subject to thermal treatment by incubation for 1 hour at 90° C. and 50 mbar, storage for 18 hours at room temperature, and a second incubation for 3.5 hours 90° C. and 50 mbar. XRPD analysis was performed on the sample following the 1 hour incubation at 90° C. and 50 mbar, after the 18 hours of storage at room temperature, and after the final 3.5 hour incubation 90° C. and 50 mbar.

[5] = Thermogravimetric analysis (TGA), degradation; type: physicochemical
Procedure: The TGA profile of Form I is shown in the top panel of FIG. 12 with the heat-flow profile in the middle panel of FIG. 12, and the first derivative of the TGA profile in the bottom pane of FIG. 12. […] A weight loss of 0.2% was detected between 140° C. and 180° C., potentially ascribable to solvent release. Degradation of Form I took place above 270° C. The heat-flow profile included two main peaks around 50° C. and 160° C. The first derivative of the TGA profile indicated a greatest decline in the TGA profile occurred around 400° C., and that weight loss occurred around 320° C.

[6] = Slurries with amorphous (Z)-endoxifen (XRPD); type: physicochemical; details: for Polymorphic form recovered (XRPD): 22 days stirring at room temperature
Procedure: Further slurry experiments were performed utilizing amorphous (Z)-endoxifen as an input. 20 mg of amorphous (Z)-endoxifen was suspended in 200 μl of various solvent mixtures. Following 22 days of stirring at room temperature, solid (Z)-endoxifen was recovered from the slurries during centrifugation at 4000 rpm for 3 minutes with a nylon filter (0.22 μm).

[7] = cited from earlier work

CC/C(=C(\c1ccc(O)cc1)c1ccc(OCCNC)cc1)c1ccccc1 [Form IV, (Z)-endoxifen]
XRPD change on storage ([1]; 7 days, sealed vial): stable under ambient conditions | XRPD change on storage ([1]; 15 days, sealed vial, sample crystallized from 2-propanol/THF 95/5 (v/v)): maintained a Form IV XRPD pattern following 15 days storage, its XRPD spectrum also exhibited a new signal at 16.1° 2θ | XRPD pattern after mechanical grinding ([2]; 10 minutes ball milling at 30 Hz): Form I with a mild signal at 4.8° 20 ascribable to Form IV | XRPD pattern after kneading ([2]; 10 minutes ball milling at 30 Hz with catalytic 2-propanol (2 μl)): mixture of Form I and Form IV | XRPD pattern after storage ([3]; 25° C. and 100% relative humidity): Form I with trace of Form IV | XRPD pattern after storage ([3]; 40° C. and 75% relative humidity): Form I with minor traces of Form IV | XRPD pattern after thermal treatment ([4]; after 1 hour at 90° C. and 50 mbar): Form IV with traces of Form I | XRPD pattern after thermal treatment ([4]; after final 3.5 hour treatment at 90° C. and 50 mbar (following 1 hour at 90° C. and 18 hours at room temperature)): Form IV with traces of Form I | Degradation temperature (TGA) [5]: above 270 °C | Degradation temperature (TGA) ([5]; sample from scaled-up crystallization): above 270 °C

CC/C(=C(\c1ccc(O)cc1)c1ccc(OCCNC)cc1)c1ccccc1 [amorphous (Z)-endoxifen, (Z)-endoxifen]
XRPD change on storage ([1]; 18 days): stable and does not convert into other polymorphic forms | Output Main phase [phase] ([6]; SLRT: acetone/tetrahydrofuran 90/10, 100 mg/mL, RT, 22 d, amorphous input): Form I | Polymorphic form recovered (XRPD) ([6]; acetone/tetrahydrofuran slurry): Form I with additional unassigned peaks | Polymorphic form recovered (XRPD) ([6]; ethyl acetate/heptane slurry): Form IX | Polymorphic form recovered (XRPD) ([6]; one of the 2-propanol/tetrahydrofuran slurries): Form IV

CC/C(=C(\c1ccccc1)c1ccc(OCCN(C)C)cc1)c1ccccc1 [tamoxifen, (Z)-2-[4-(1,2-diphenyl-1-butenyl)phenoxy]-N,N-dimethylethanamine]
Terminal elimination half-life ([7]; in vivo): 120 to 170 h | Peak concentration time ([7]; post-dose): approximately 5 hours | Reported therapeutic levels of plasma tamoxifen ([7]; subjects dosed with 20 mg of oral tamoxifen): ≥ 30 nM
